Activity calls are given as the source filed them. Rule as the data show it: actives have a measured IC50 and inactives only a lower limit.

In the assay the target is Envelope glycoprotein gp160 (Human immunodeficiency virus 1, UniProt Q6QLK5). Nature of the assay: cell-free HIV fusion peptide-binding blockers – biochemical, uHTS, fluorescence dequenching, […] (AID 1986).
Envelope glycoprotein gp160, sequence (Q6QLK5 whole entry, the tested form may be a part): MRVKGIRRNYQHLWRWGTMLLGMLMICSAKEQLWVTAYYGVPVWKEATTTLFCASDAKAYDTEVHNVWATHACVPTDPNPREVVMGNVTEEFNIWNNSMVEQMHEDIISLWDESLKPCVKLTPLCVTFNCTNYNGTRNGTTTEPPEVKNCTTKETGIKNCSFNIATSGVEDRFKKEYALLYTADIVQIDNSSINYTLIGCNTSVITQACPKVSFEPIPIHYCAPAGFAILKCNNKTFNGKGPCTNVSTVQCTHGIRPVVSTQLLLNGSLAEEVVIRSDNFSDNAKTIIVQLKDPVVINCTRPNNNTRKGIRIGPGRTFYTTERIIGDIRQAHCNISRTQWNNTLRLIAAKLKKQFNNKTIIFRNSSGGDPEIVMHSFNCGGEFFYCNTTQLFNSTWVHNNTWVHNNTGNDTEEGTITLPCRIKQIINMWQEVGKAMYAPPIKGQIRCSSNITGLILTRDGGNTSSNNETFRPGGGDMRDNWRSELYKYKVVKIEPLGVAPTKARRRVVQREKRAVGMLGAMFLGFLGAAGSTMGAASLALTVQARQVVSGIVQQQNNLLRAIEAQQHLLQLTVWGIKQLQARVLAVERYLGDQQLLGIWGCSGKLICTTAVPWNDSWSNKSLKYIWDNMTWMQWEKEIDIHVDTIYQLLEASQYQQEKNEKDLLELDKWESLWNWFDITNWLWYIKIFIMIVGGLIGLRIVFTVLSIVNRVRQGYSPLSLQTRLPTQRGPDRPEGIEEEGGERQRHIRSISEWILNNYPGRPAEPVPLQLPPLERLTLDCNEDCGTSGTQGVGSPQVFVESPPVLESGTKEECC
As a reminder, the IC50 is the concentration at which inhibition is half-maximal. In the case of `COC(=O)c1sc(-c2ccc(C(C)(C)C)cc2)cc1NC(=O)CSCC(=O)O`, the IC50 was 15.4 µM (active).
In the case of `O=C(CCN1C(=O)/C(=C/c2ccccc2Cl)SC1=S)Nc1ccccc1C(=O)O`, the IC50 is 19.4 µM (active).
Regarding `COc1cc(/C=C2\C(=N)N3N=C(S(C)(=O)=O)SC3=NC2=O)cc(OC)c1OCCOc1ccc(C)cc1`, the IC50 was 11 µM (active).

Values taken from ChEMBL document CHEMBL1201862, “PubChem BioAssay data set” (2004).
